Results on one molecule are retold here after patent US20080107661A1, “MUC1 and ABL” (Dana-Farber Cancer Institute, Inc., priority 2006, published 2008).

Each structure is given as a SMILES string.

Common to all, as to format: cell-based, human
The subject of assay [1] is c-Abl. Nature of the assay: Nuclear and cytosolic c-Abl in HeLa/vector and HeLa/MUC1 cells after genotoxic agents (subcellular fractionation, immunoblot). The settings on record: 2 hours. The text has this: (§1) Cell culture. Human HeLa cervical cancer cells, HCT116/vector (HCT116 colorectal carcinoma cells stably transfected with an empty vector), HCT116/MUC1 (HCT116 colorectal carcinoma cells stably transfected with an expression vector encoding a MUC1 polypeptide), HCT116/MUC1(Y46F) (HCT116 colorectal carcinoma cells stably transfected with an expression vector encoding a mutant MUC1 polypeptide containing an amino acid substitution at position 46 changing a tyrosine (Y) to phenylalanine (F)) colon cancer cells (Ren et al., (2002) J. Biol. Chem. 277: 17616-17622) and 293 cells were cultured in Dulbecco's modified medium with 10% heat-inactivated fetal bovine serum, 100 units/ml penicillin, 100 μg/ml streptomycin and 2 mM L-glutamine. Human ZR-75-1/vector (ZR-75-1 breast cancer cells stably transfected with an empty vector) and ZR-75-1/MUC1siRNA (ZR-75-1 breast cancer cells stably transfected with an expression vector encoding an siRNA specific for MUC1) breast cancer cells (Ren et al., (2004) Cancer Cell 5:163-175) were grown in RPMI1640 medium containing 10% heat-inactivated fetal bovine serum and antibiotics. Cells were treated with 1 μM adriamycin (ADR; Calbiochem), 100 μM cisplatin (CDDP; Sigma) or 10 μM STI571 (Gleevec; Novartis, Basel, Switzerland).
(§2) Subcellular fractionation. Nuclear fractions were prepared as described (Kharbanda et al., (1996) Cancer Res. 56:3617-3621). Cytosolic fractions were prepared as described (Hill et al., (2004) EMBO J. 23:2134-2145). Cell membrane fractions were prepared with the Plasma Membrane Extraction Kit (BioVision Research Products, Mountain View, Calif.). Mitochondria were purified as described (Ren et al., (2004) Cancer Cell 5:163-175; Ren et al., (2006) Oncogene 25:20-31).
(§3) Immunoprecipitations and immunoblot analysis. Cell lysates were prepared as described (Kharbanda et al., (1995) Nature 376:785-788); Yoshida et al., (2005) Nat. Cell Biol. 7:278-285). Soluble proteins were incubated with anti-MUC1-N (Kufe et al., (1984) Hybridoma 3:223-232), anti-MUC1-C (Ab5; Neomarker, Montreal, Quebec), anti-Flag (Sigma, St. Louis, Mo.), anti-c-Abl (Ab3; Oncogene, San Diego, Calif.) or anti-14-3-3 (Abcam Inc., Cambridge, Mass.) antibodies for 2 hours at 4° C., followed by precipitation with protein G-Sepharose beads for 1 hour. […] Intensity of the signals was determined by densitometric scanning. Statistical significance was determined by the Student's t-test.
(In general: In western blotting, separated proteins are transferred to a membrane and probed.)

In assay [2] the test system is c-Abl. Nature of the assay: Nuclear targeting of c-Abl in HCT116/vector, HCT116/MUC1 and mutant cells after CDDP.
From the text: as §1, §2, §3

For assay [3], the system named is MUC1 and c-Abl. Nature of the assay: Co-immunoprecipitation of c-Abl with MUC1 (anti-MUC1-N precipitates) after CDDP. The note with it: HCT116/MUC1 cells; CDDP, 1, 2 and 4 hours. How it is done: as §3, with “hour. Immune complexes and cell lysates (50 μg) were subjected to immunoblot analysis with anti-MUC1-N, anti-MUC1-C, anti-c-Abl (Calbiochem, San Diego, Calif.), anti-lamin B (Oncogene, San Diego, Calif.), anti-IκBα (Santa Cruz Biotechnology, Santa Cruz, Calif.), anti-GFP (BD Biosciences, San Jose, Calif.), anti-Flag (Sigma, St. Louis, […].), anti-β-actin (Sigma, St. Louis, Mo.), anti-phospho-c-Abl-[…] (Cell Signaling Technology), anti-14-3-3 (Santa Cruz Biotechnology, Santa Cruz, Calif.), anti-PKC5 (Santa Cruz Biotechnology), anti-HSP60 (BD Biosciences, San Jose, Calif.), anti-PCNA (Oncogene), or anti-calnexin (Stressgen, San Diego, Calif.) antibodies.” for “hour.”

`[NH2][Pt]([NH2])([Cl])[Cl]` [CDDP, cisplatin]: the “cytosolic c-Abl” value in assay [1] (HeLa/vector cells, CDDP) was “decrease in cytosolic c-Abl”. Moreover, the “nuclear targeting of c-Abl” value is on record as “MUC1 attenuates nuclear targeting of c-Abl” in assay [1] (HeLa/vector versus HeLa/MUC1 cells, 100 μM CDDP); “blocked nuclear targeting of c-Abl” in assay [2] (HCT116/MUC1 cells, CDDP, 2 and 4 hours); “c-Abl was targeted to the nucleus” in assay [2] (HCT116/vector cells, CDDP, 2 and 4 hours). Also, the “CDDP-induced targeting of cytosolic c-Abl to the nucleus” value in assay [2] (HCT116/MUC1(Y46F) cells, CDDP, 0, 2 or 4 hours) is “blocked CDDP-induced targeting of cytosolic c-Abl to the nucleus”. Further, the “effect of MUC1(Y60F) on CDDP-induced targeting of c-Abl to the nucleus” value in assay [2] (HCT116/MUC1(Y60F) cells, CDDP, 2 and 4 hours) is on record as “little if any effect”. Besides, the “binding of MUC1 with c-Abl” value in assay [3] is reported as “increased binding of MUC1”.
